# Data published in the NIST ThermoML archive (doi:10.1016/j.jct.2013.09.001).
# Numbers after ± are expanded uncertainties.
# Key:
# [1] = xn = mol fraction of the nth substance listed; conditions: 101 kPa, Liquid; for mass density: Vibrating tube method; for viscosity: Concentric cylinders viscometry
# [2] = 101 kPa, Liquid; for viscosity: Concentric cylinders viscometry; for mass density: Vibrating tube method
structure (smiles),measurement,setting,value
OCCNCCO [diethanolamine] + CC(=O)[O-].CCCCn1cc[n+](C)c1,mass density,"[1]; 293.15 K, x1 = 1",1097.4 ± 0.5 kg/m3
same,viscosity,"[1]; 303.15 K, x1 = 1",386.6 ± 13 mPa·s
same,mass density,"[1]; 303.15 K, x1 = 1",1090.5 ± 0.5 kg/m3
same,viscosity,"[1]; 313.15 K, x1 = 1",189.7 ± 5 mPa·s
same,mass density,"[1]; 313.15 K, x1 = 1",1083.9 ± 0.5 kg/m3
same,viscosity,"[1]; 323.15 K, x1 = 1",101.2 ± 2.3 mPa·s
same,mass density,"[1]; 323.15 K, x1 = 1",1077.1 ± 0.5 kg/m3
same,viscosity,"[1]; 333.15 K, x1 = 1",57.9 ± 1.2 mPa·s
same,mass density,"[1]; 333.15 K, x1 = 1",1070.3 ± 0.5 kg/m3
same,viscosity,"[1]; 343.15 K, x1 = 1",35.3 ± 0.7 mPa·s
same,mass density,"[1]; 343.15 K, x1 = 1",1063.5 ± 0.5 kg/m3
same,viscosity,"[1]; 353.15 K, x1 = 1",22.7 ± 0.5 mPa·s
CN(CCO)CCO [N-methyldiethanolamine],viscosity,[2]; 293.15 K,103.3 ± 2.3 mPa·s
same,mass density,[2]; 293.15 K,1040.6 ± 0.5 kg/m3
same,viscosity,[2]; 303.15 K,57.3 ± 1.2 mPa·s
same,mass density,[2]; 303.15 K,1032.8 ± 0.5 kg/m3
same,viscosity,[2]; 313.15 K,34.1 ± 0.7 mPa·s
same,mass density,[2]; 313.15 K,1025.4 ± 0.5 kg/m3
same,viscosity,[2]; 323.15 K,21.6 ± 0.5 mPa·s
same,mass density,[2]; 323.15 K,1017.8 ± 0.5 kg/m3
same,viscosity,[2]; 333.15 K,14.3 ± 0.3 mPa·s
same,mass density,[2]; 333.15 K,1010 ± 0.5 kg/m3
same,viscosity,[2]; 343.15 K,9.9 ± 0.2 mPa·s
same,mass density,[2]; 343.15 K,1002.3 ± 0.5 kg/m3
same,viscosity,[2]; 353.15 K,7.2 ± 0.2 mPa·s
OCCNCCO [diethanolamine],mass density,[2]; 293.15 K,1097.4 ± 0.5 kg/m3
same,viscosity,[2]; 303.15 K,386.6 ± 13 mPa·s
same,mass density,[2]; 303.15 K,1090.5 ± 0.5 kg/m3
same,viscosity,[2]; 313.15 K,189.7 ± 5 mPa·s
same,mass density,[2]; 313.15 K,1083.9 ± 0.5 kg/m3
same,viscosity,[2]; 323.15 K,101.2 ± 2.3 mPa·s
same,mass density,[2]; 323.15 K,1077.1 ± 0.5 kg/m3
same,viscosity,[2]; 333.15 K,57.9 ± 1.2 mPa·s
same,mass density,[2]; 333.15 K,1070.3 ± 0.5 kg/m3
same,viscosity,[2]; 343.15 K,35.3 ± 0.7 mPa·s
same,mass density,[2]; 343.15 K,1063.5 ± 0.5 kg/m3
same,viscosity,[2]; 353.15 K,22.7 ± 0.5 mPa·s
CN(CCO)CCO [N-methyldiethanolamine] + CC(=O)[O-].CCCCn1cc[n+](C)c1,viscosity,"[1]; 293.15 K, x1 = 1",103.3 ± 2.3 mPa·s
same,mass density,"[1]; 293.15 K, x1 = 1",1040.6 ± 0.5 kg/m3
same,viscosity,"[1]; 303.15 K, x1 = 1",57.3 ± 1.2 mPa·s
same,mass density,"[1]; 303.15 K, x1 = 1",1032.8 ± 0.5 kg/m3
same,viscosity,"[1]; 313.15 K, x1 = 1",34.1 ± 0.7 mPa·s
same,mass density,"[1]; 313.15 K, x1 = 1",1025.4 ± 0.5 kg/m3
same,viscosity,"[1]; 323.15 K, x1 = 1",21.6 ± 0.5 mPa·s
same,mass density,"[1]; 323.15 K, x1 = 1",1017.8 ± 0.5 kg/m3
same,viscosity,"[1]; 333.15 K, x1 = 1",14.3 ± 0.3 mPa·s
same,mass density,"[1]; 333.15 K, x1 = 1",1010 ± 0.5 kg/m3
same,viscosity,"[1]; 343.15 K, x1 = 1",9.9 ± 0.2 mPa·s
same,mass density,"[1]; 343.15 K, x1 = 1",1002.3 ± 0.5 kg/m3
same,viscosity,"[1]; 353.15 K, x1 = 1",7.2 ± 0.2 mPa·s
CC(=O)[O-].CCCCn1cc[n+](C)c1 [1-butyl-3-methylimidazolium acetate],viscosity,[2]; 293.15 K,549.9 ± 24 mPa·s
same,mass density,[2]; 293.15 K,1056.1 ± 6 kg/m3
same,viscosity,[2]; 303.15 K,257.4 ± 9.8 mPa·s
same,mass density,[2]; 303.15 K,1049.6 ± 6 kg/m3
same,viscosity,[2]; 313.15 K,135.5 ± 4.7 mPa·s
same,mass density,[2]; 313.15 K,1043.5 ± 5.9 kg/m3
same,viscosity,[2]; 323.15 K,78.4 ± 2.6 mPa·s
same,mass density,[2]; 323.15 K,1037.4 ± 5.8 kg/m3
same,viscosity,[2]; 333.15 K,49 ± 1.6 mPa·s
same,mass density,[2]; 333.15 K,1031.3 ± 5.7 kg/m3
same,viscosity,[2]; 343.15 K,32.5 ± 1 mPa·s
same,mass density,[2]; 343.15 K,1025.4 ± 5.7 kg/m3
same,viscosity,[2]; 353.15 K,22.7 ± 0.7 mPa·s
CC(=O)[O-].CCCCn1cc[n+](C)c1 [1-butyl-3-methylimidazolium acetate] + CN(CCO)CCO,viscosity,"[1]; 293.15 K, x2 = 0",549.9 ± 24 mPa·s
same,viscosity,"[1]; 293.15 K, x2 = 0.2",369.6 ± 14 mPa·s
same,viscosity,"[1]; 293.15 K, x2 = 0.4",254.3 ± 8.5 mPa·s
same,viscosity,"[1]; 293.15 K, x2 = 0.6",164.4 ± 4.7 mPa·s
same,viscosity,"[1]; 293.15 K, x2 = 0.8",117.9 ± 2.9 mPa·s
same,mass density,"[1]; 293.15 K, x2 = 0",1056.1 ± 6 kg/m3
same,mass density,"[1]; 293.15 K, x2 = 0.2",1052.6 ± 4.2 kg/m3
same,mass density,"[1]; 293.15 K, x2 = 0.4",1049.5 ± 2.7 kg/m3
same,mass density,"[1]; 293.15 K, x2 = 0.6",1046 ± 1.6 kg/m3
same,mass density,"[1]; 293.15 K, x2 = 0.8",1043.4 ± 0.8 kg/m3
same,viscosity,"[1]; 303.15 K, x2 = 0",257.4 ± 9.8 mPa·s
same,viscosity,"[1]; 303.15 K, x2 = 0.2",188.9 ± 6.3 mPa·s
same,viscosity,"[1]; 303.15 K, x2 = 0.4",139.8 ± 4.1 mPa·s
same,viscosity,"[1]; 303.15 K, x2 = 0.6",94.9 ± 2.4 mPa·s
same,viscosity,"[1]; 303.15 K, x2 = 0.8",68.9 ± 1.6 mPa·s
same,mass density,"[1]; 303.15 K, x2 = 0",1049.6 ± 6 kg/m3
same,mass density,"[1]; 303.15 K, x2 = 0.2",1046.1 ± 4.1 kg/m3
same,mass density,"[1]; 303.15 K, x2 = 0.4",1043 ± 2.7 kg/m3
same,mass density,"[1]; 303.15 K, x2 = 0.6",1039.2 ± 1.5 kg/m3
same,mass density,"[1]; 303.15 K, x2 = 0.8",1036.4 ± 0.8 kg/m3
same,viscosity,"[1]; 313.15 K, x2 = 0",135.5 ± 4.7 mPa·s
same,viscosity,"[1]; 313.15 K, x2 = 0.2",106.6 ± 3.3 mPa·s
same,viscosity,"[1]; 313.15 K, x2 = 0.4",83.2 ± 2.3 mPa·s
same,viscosity,"[1]; 313.15 K, x2 = 0.6",58.8 ± 1.4 mPa·s
same,viscosity,"[1]; 313.15 K, x2 = 0.8",43.1 ± 1 mPa·s
same,mass density,"[1]; 313.15 K, x2 = 0",1043.5 ± 5.9 kg/m3
same,mass density,"[1]; 313.15 K, x2 = 0.2",1040.1 ± 4.1 kg/m3
same,mass density,"[1]; 313.15 K, x2 = 0.4",1037 ± 2.6 kg/m3
same,mass density,"[1]; 313.15 K, x2 = 0.6",1033.1 ± 1.5 kg/m3
same,mass density,"[1]; 313.15 K, x2 = 0.8",1029.8 ± 0.8 kg/m3
same,viscosity,"[1]; 323.15 K, x2 = 0",78.4 ± 2.6 mPa·s
same,viscosity,"[1]; 323.15 K, x2 = 0.2",65 ± 1.9 mPa·s
same,viscosity,"[1]; 323.15 K, x2 = 0.4",52.9 ± 1.4 mPa·s
same,viscosity,"[1]; 323.15 K, x2 = 0.6",38.7 ± 0.9 mPa·s
same,viscosity,"[1]; 323.15 K, x2 = 0.8",28.4 ± 0.6 mPa·s
same,mass density,"[1]; 323.15 K, x2 = 0",1037.4 ± 5.8 kg/m3
same,mass density,"[1]; 323.15 K, x2 = 0.2",1034.1 ± 4 kg/m3
same,mass density,"[1]; 323.15 K, x2 = 0.4",1030.9 ± 2.6 kg/m3
same,mass density,"[1]; 323.15 K, x2 = 0.6",1026.8 ± 1.5 kg/m3
same,mass density,"[1]; 323.15 K, x2 = 0.8",1023.1 ± 0.8 kg/m3
same,viscosity,"[1]; 333.15 K, x2 = 0",49 ± 1.6 mPa·s
same,viscosity,"[1]; 333.15 K, x2 = 0.2",42.3 ± 1.2 mPa·s
same,viscosity,"[1]; 333.15 K, x2 = 0.4",35.6 ± 0.9 mPa·s
same,viscosity,"[1]; 333.15 K, x2 = 0.6",26.7 ± 0.7 mPa·s
same,viscosity,"[1]; 333.15 K, x2 = 0.8",19.7 ± 0.4 mPa·s
same,mass density,"[1]; 333.15 K, x2 = 0",1031.3 ± 5.7 kg/m3
same,mass density,"[1]; 333.15 K, x2 = 0.2",1028.1 ± 4 kg/m3
same,mass density,"[1]; 333.15 K, x2 = 0.4",1024.7 ± 2.6 kg/m3
same,mass density,"[1]; 333.15 K, x2 = 0.6",1020.5 ± 1.5 kg/m3
same,mass density,"[1]; 333.15 K, x2 = 0.8",1016.4 ± 0.8 kg/m3
same,viscosity,"[1]; 343.15 K, x2 = 0",32.5 ± 1 mPa·s
same,viscosity,"[1]; 343.15 K, x2 = 0.2",29 ± 0.8 mPa·s
same,viscosity,"[1]; 343.15 K, x2 = 0.4",25.1 ± 0.7 mPa·s
same,viscosity,"[1]; 343.15 K, x2 = 0.6",19.3 ± 0.5 mPa·s
same,viscosity,"[1]; 343.15 K, x2 = 0.8",14.2 ± 0.3 mPa·s
same,mass density,"[1]; 343.15 K, x2 = 0",1025.4 ± 5.7 kg/m3
same,mass density,"[1]; 343.15 K, x2 = 0.2",1022.3 ± 3.9 kg/m3
same,mass density,"[1]; 343.15 K, x2 = 0.4",1018.8 ± 2.5 kg/m3
same,mass density,"[1]; 343.15 K, x2 = 0.6",1014.4 ± 1.5 kg/m3
same,mass density,"[1]; 343.15 K, x2 = 0.8",1009.8 ± 0.8 kg/m3
same,viscosity,"[1]; 353.15 K, x2 = 0",22.7 ± 0.7 mPa·s
same,viscosity,"[1]; 353.15 K, x2 = 0.2",20.7 ± 0.6 mPa·s
same,viscosity,"[1]; 353.15 K, x2 = 0.4",18.3 ± 0.5 mPa·s
same,viscosity,"[1]; 353.15 K, x2 = 0.6",14.4 ± 0.4 mPa·s
same,viscosity,"[1]; 353.15 K, x2 = 0.8",10.6 ± 0.2 mPa·s
